Measurements: ChEMBL document CHEMBL1201862, “PubChem BioAssay data set” (2004)
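Briefly, cells in 96-well plates were exposed to five compound concentrations for 48 h, and endpoints were estimated by linear interpolation. At the GI50, growth is halved.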 The source made the active and inactive calls. No stated cut-off is given here; in the data, active = GI50 up to about 1.1 µM and inactive = higher.

Legend:
Assay in all cases: inhibition of tumour cell growth, NCI panel, 48 h
NCI-H23 = tested on: NCI-H23
RXF 393 = tested on: RXF 393
A549 = tested on: A549
LOX IMVI = tested on: LOX IMVI
KM12 = tested on: KM12
SK-OV-3 = tested on: SK-OV-3
HT-29 = tested on: HT-29
K562 = tested on: K562
NCI-H460 = tested on: NCI-H460
OVCAR-3 = tested on: OVCAR-3
SF-295 = tested on: SF-295
SK-MEL-28 = tested on: SK-MEL-28
CCRF-CEM = tested on: CCRF-CEM
HL-60 = tested on: HL-60
OVCAR-5 = tested on: OVCAR-5
Malme-3M = tested on: Malme-3M
SNB-75 = tested on: SNB-75

Measured: GI50

CCOC(=O)NC(=O)c1cn(CCN2CCNCC2)c(=O)[nH]c1=O
inactive: NCI-H23 > 100 µM | RXF 393 > 100 µM | A549 > 100 µM | LOX IMVI > 100 µM | KM12 > 100 µM | SK-OV-3 > 100 µM | HT-29 > 100 µM | K562 > 100 µM | NCI-H460 > 100 µM | OVCAR-3 > 100 µM | SF-295 > 100 µM | SK-MEL-28 > 100 µM | CCRF-CEM > 100 µM | HL-60 > 100 µM | OVCAR-5 > 100 µM

CCOC(=O)C1C(=O)C(=O)N2CCc3c([nH]c4ccccc34)C12 (centres undefined)
inactive: NCI-H23 > 100 µM | RXF 393 > 100 µM | A549 > 100 µM | KM12 > 100 µM | SK-OV-3 > 100 µM | HT-29 > 100 µM | K562 > 100 µM | OVCAR-3 > 100 µM | Malme-3M > 100 µM | SF-295 > 100 µM | SK-MEL-28 > 100 µM | CCRF-CEM > 100 µM | HL-60 > 100 µM | OVCAR-5 > 100 µM

Cc1cn(C2CC(CCCO)C(CO)O2)c(=O)[nH]c1=O (centres undefined)
inactive: NCI-H23 > 100 µM | RXF 393 > 100 µM | A549 > 100 µM | LOX IMVI > 100 µM | KM12 > 100 µM | SK-OV-3 > 100 µM | HT-29 > 100 µM | K562 > 100 µM | NCI-H460 > 100 µM | OVCAR-3 > 100 µM | Malme-3M > 100 µM | SF-295 > 100 µM | SK-MEL-28 > 100 µM | HL-60 > 100 µM | OVCAR-5 > 100 µM

COc1ccc(/C(Cl)=C(\C=O)c2ccc(Br)cc2)cc1OC
inactive: NCI-H23 64.7 µM | RXF 393 20.7 µM | A549 62.5 µM | LOX IMVI 18.3 µM | KM12 > 100 µM | SK-OV-3 > 100 µM | HT-29 > 100 µM | K562 > 61 µM | NCI-H460 > 68.9 µM | OVCAR-3 > 100 µM | SNB-75 2.81 µM | Malme-3M 47.8 µM | SF-295 19.8 µM | SK-MEL-28 > 100 µM | HL-60 17 µM | OVCAR-5 > 100 µM

CC(C)C(CCOS(=O)(=O)O)CCC(C)[C@H]1[C@@H](O)C(O)C2[C@]3(O)C[C@@H](O)C4(O)C[C@@H](O)CC[C@]4(C)C3CC[C@@]21C (some centres undefined)
inactive: NCI-H23 > 100 µM | RXF 393 > 100 µM | A549 > 100 µM | LOX IMVI > 100 µM | KM12 > 100 µM | SK-OV-3 > 100 µM | HT-29 > 100 µM | K562 > 100 µM | NCI-H460 > 100 µM | OVCAR-3 > 100 µM | Malme-3M > 100 µM | SF-295 > 100 µM | SK-MEL-28 > 100 µM | CCRF-CEM > 100 µM | HL-60 > 100 µM

Cc1ccc(S(=O)(=O)ON/N=C2/C3OC3[C@@H]3CCCC[C@H]23)cc1 (some centres undefined)
inactive: NCI-H23 > 100 µM | RXF 393 39.1 µM | A549 > 100 µM | KM12 > 100 µM | HT-29 > 100 µM | K562 > 100 µM | NCI-H460 > 100 µM | OVCAR-3 > 100 µM | SNB-75 > 100 µM | Malme-3M > 100 µM | SF-295 1.19 µM | SK-MEL-28 > 100 µM | CCRF-CEM > 100 µM | HL-60 > 100 µM

c1ccc2nc(-c3ccc4c(c3)OCO4)ccc2c1
inactive: NCI-H23 47.1 µM | RXF 393 15.2 µM | A549 49.2 µM | LOX IMVI 26.1 µM | KM12 24.7 µM | HT-29 24.7 µM | NCI-H460 34.5 µM | OVCAR-3 26.4 µM | SNB-75 22.5 µM | Malme-3M 18 µM | SF-295 46.7 µM | SK-MEL-28 > 100 µM | HL-60 29.1 µM | OVCAR-5 48.5 µM

O=C(O)/C=C/n1c2ccccc2c(=O)c2ccccc21
inactive: NCI-H23 > 100 µM | RXF 393 > 100 µM | A549 > 100 µM | LOX IMVI > 100 µM | KM12 > 100 µM | HT-29 > 100 µM | K562 > 100 µM | NCI-H460 > 100 µM | OVCAR-3 > 100 µM | Malme-3M > 100 µM | SF-295 > 100 µM | SK-MEL-28 > 100 µM | CCRF-CEM > 100 µM | HL-60 > 100 µM | OVCAR-5 > 100 µM

OC1CC(O)O[C@H](c2ccccc2)C1 (some centres undefined)
inactive: NCI-H23 > 100 µM | RXF 393 > 100 µM | A549 > 100 µM | LOX IMVI > 100 µM | KM12 > 100 µM | HT-29 > 100 µM | K562 > 100 µM | NCI-H460 > 100 µM | OVCAR-3 > 100 µM | SNB-75 > 100 µM | Malme-3M > 100 µM | SF-295 > 100 µM | SK-MEL-28 > 100 µM | CCRF-CEM > 100 µM | HL-60 > 100 µM | OVCAR-5 > 100 µM
